How the values were obtained:
Experiment in all cases: relative viability (nuclei count vs DMSO), 5 days (fraction); higher = more cells survive
SW 1573 = test system: SW 1573
Summary of the method: (§1)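 Dosing by pin tool came one day after lung cancer cell lines were seeded in 1536-well plates, using either one drug or a fixed anchor-drug dose plus five library-drug doses (not always all listed) in √10 steps. After 5 days, nuclei were counted on 4× images. Relative viability is treated-well nuclei count divided by vehicle-well nuclei count, and values are medians of duplicate plates.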

ChaGo-K-1 = test system: ChaGo-K-1
Summary of the method: as §1

LCLC-103H = test system: LCLC-103H
Summary of the method: as §1

NCI-H1666 = test system: NCI-H1666
Summary of the method: as §1

SK-LU-1 = test system: SK-LU-1
Summary of the method: as §1

NCI-H322M = test system: NCI-H322M
Summary of the method: as §1

RERF-LC-KJ = test system: RERF-LC-KJ
Summary of the method: as §1

NCI-H1563 = test system: NCI-H1563
Summary of the method: as §1

NCI-H2342 = test system: NCI-H2342
Summary of the method: as §1

NCI-H23 = test system: NCI-H23
Summary of the method: as §1

SW 900 = test system: SW 900
Summary of the method: as §1

Question: How did the relative viability (SW 1573; first compound 0.0002 µM) turn out when `CC(=O)O[C@@]12CO[C@@H]1C[C@H](O)[C@@]1(C)C(=O)[C@H](O)C3=C(C)[C@@H](OC(=O)[C@H](O)[C@@H](NC(=O)OC(C)(C)C)c4ccccc4)C[C@@](O)([C@@H](OC(=O)c4ccccc4)[C@H]21)C3(C)C` [Docetaxel] + N=C(N)NC(=N)NCCc1ccccc1 [Phenformin] (partner 250 µM) was run?
Answer: 0.311

Question: And the relative viability (SW 1573; first compound 0.000632 µM)?
Answer: 0.344

Question: What about the relative viability (SW 1573; first compound 0.002 µM) of the same compound?
Answer: 0.159

Question: What about the relative viability (SW 1573; first compound 0.02 µM) of the same compound?
Answer: 0.119

Question: And the relative viability (ChaGo-K-1; first compound 0.0002 µM)?
Answer: 0.431

Question: What about the relative viability (ChaGo-K-1; first compound 0.000632 µM) of the same compound?
Answer: 0.408

Question: What about the relative viability (ChaGo-K-1; first compound 0.002 µM) of the same compound?
Answer: 0.283

Question: What about the relative viability (ChaGo-K-1; first compound 0.006325 µM) of the same compound?
Answer: 0.192

Question: What about the relative viability (ChaGo-K-1; first compound 0.02 µM) of the same compound?
Answer: 0.149

Question: What about the relative viability (LCLC-103H; first compound 0.0002 µM) of the same compound?
Answer: 0.347

Question: And the relative viability (LCLC-103H; first compound 0.000632 µM)?
Answer: 0.344

Question: And the relative viability (LCLC-103H; first compound 0.002 µM)?
Answer: 0.308

Question: What about the relative viability (LCLC-103H; first compound 0.006325 µM) of the same compound?
Answer: 0.282

Question: And the relative viability (LCLC-103H; first compound 0.02 µM)?
Answer: 0.248

Question: And the relative viability (NCI-H1666; first compound 0.0002 µM)?
Answer: 0.47

Question: What about the relative viability (NCI-H1666; first compound 0.000632 µM) of the same compound?
Answer: 0.515

Question: And the relative viability (NCI-H1666; first compound 0.002 µM)?
Answer: 0.537

Question: What about the relative viability (NCI-H1666; first compound 0.006325 µM) of the same compound?
Answer: 0.382

Question: And the relative viability (NCI-H1666; first compound 0.02 µM)?
Answer: 0.337

Question: And the relative viability (SK-LU-1; first compound 0.0002 µM)?
Answer: 0.48

Question: What about the relative viability (SK-LU-1; first compound 0.000632 µM) of the same compound?
Answer: 0.285

Question: And the relative viability (SK-LU-1; first compound 0.002 µM)?
Answer: 0.239

Question: And the relative viability (SK-LU-1; first compound 0.006325 µM)?
Answer: 0.183

Question: What about the relative viability (SK-LU-1; first compound 0.02 µM) of the same compound?
Answer: 0.115

Question: And the relative viability (NCI-H322M; first compound 0.0002 µM)?
Answer: 0.807

Question: And the relative viability (NCI-H322M; first compound 0.000632 µM)?
Answer: 0.765

Question: And the relative viability (NCI-H322M; first compound 0.002 µM)?
Answer: 0.656

Question: And the relative viability (NCI-H322M; first compound 0.006325 µM)?
Answer: 0.478

Question: And the relative viability (NCI-H322M; first compound 0.02 µM)?
Answer: 0.332

Question: What about the relative viability (RERF-LC-KJ; first compound 0.0002 µM) of the same compound?
Answer: 0.454

Question: And the relative viability (RERF-LC-KJ; first compound 0.000632 µM)?
Answer: 0.405

Question: And the relative viability (RERF-LC-KJ; first compound 0.002 µM)?
Answer: 0.238

Question: What about the relative viability (RERF-LC-KJ; first compound 0.006325 µM) of the same compound?
Answer: 0.209

Question: And the relative viability (RERF-LC-KJ; first compound 0.02 µM)?
Answer: 0.195

Question: And the relative viability (NCI-H1563; first compound 0.0002 µM)?
Answer: 0.619

Question: What about the relative viability (NCI-H1563; first compound 0.000632 µM) of the same compound?
Answer: 0.683

Question: And the relative viability (NCI-H1563; first compound 0.002 µM)?
Answer: 0.661

Question: What about the relative viability (NCI-H1563; first compound 0.006325 µM) of the same compound?
Answer: 0.582

Question: What about the relative viability (NCI-H1563; first compound 0.02 µM) of the same compound?
Answer: 0.479

Question: And the relative viability (NCI-H2342; first compound 0.0002 µM)?
Answer: 0.478

Question: And the relative viability (NCI-H2342; first compound 0.000632 µM)?
Answer: 0.596

Question: What about the relative viability (NCI-H2342; first compound 0.002 µM) of the same compound?
Answer: 0.625

Question: What about the relative viability (NCI-H2342; first compound 0.006325 µM) of the same compound?
Answer: 0.4

Question: And the relative viability (NCI-H2342; first compound 0.02 µM)?
Answer: 0.343

Question: What about the relative viability (NCI-H23; first compound 0.0002 µM) of the same compound?
Answer: 0.801

Question: And the relative viability (NCI-H23; first compound 0.000632 µM)?
Answer: 0.702

Question: And the relative viability (NCI-H23; first compound 0.002 µM)?
Answer: 0.475

Question: What about the relative viability (NCI-H23; first compound 0.006325 µM) of the same compound?
Answer: 0.2

Question: What about the relative viability (NCI-H23; first compound 0.02 µM) of the same compound?
Answer: 0.121

Question: What about the relative viability (SW 900; first compound 0.0002 µM) of the same compound?
Answer: 0.389

Question: What about the relative viability (SW 900; first compound 0.000632 µM) of the same compound?
Answer: 0.235

Question: And the relative viability (SW 900; first compound 0.002 µM)?
Answer: 0.262

Question: What about the relative viability (SW 900; first compound 0.006325 µM) of the same compound?
Answer: 0.167

Question: What about the relative viability (SW 900; first compound 0.02 µM) of the same compound?
Answer: 0.0976

Reference: the supplement of paper PMC10307832
